{
  "source": "patent US11655241B2",
  "about": "“Heterocyclic compound and use thereof” (Takeda Pharmaceutical Company Limited, priority 2018, dated 2023)",
  "data": [
    {"molecular_target": "T1, human orexin type 2 receptor (Homo sapiens, UniProt O43614)", "T1 construct": "expressed in transfected cells", "T1 sequence (O43614 1-444)": "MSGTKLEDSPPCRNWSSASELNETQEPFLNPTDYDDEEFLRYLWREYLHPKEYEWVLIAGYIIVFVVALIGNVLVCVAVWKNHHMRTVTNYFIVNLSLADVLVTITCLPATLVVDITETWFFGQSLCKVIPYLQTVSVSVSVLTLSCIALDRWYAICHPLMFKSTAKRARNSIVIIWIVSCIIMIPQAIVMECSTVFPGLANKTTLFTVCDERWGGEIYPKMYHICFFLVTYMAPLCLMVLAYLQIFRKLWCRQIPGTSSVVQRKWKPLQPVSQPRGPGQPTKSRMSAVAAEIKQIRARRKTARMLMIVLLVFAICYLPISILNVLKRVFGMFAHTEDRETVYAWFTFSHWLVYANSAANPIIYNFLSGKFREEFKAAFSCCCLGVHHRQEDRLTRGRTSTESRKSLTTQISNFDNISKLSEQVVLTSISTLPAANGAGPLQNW", "experiment": "Measurement of orexin type 2 receptor agonist activity (calcium fluorescence, Fluo-4 AM, FDSS)", "assay_type": "cell-based", "details": "compound at 3 μM; CHO cells forcibly expressing human OX2 receptor; DMSO = 0%, orexin A (human) 10 nM = 100%", "from_the_text": "Experimental Example 1: Obtainment of Cell Stably Expressing Human Orexin Type 2 Receptor (hOX2R)\nTo obtain a cell clone stably expressing human orexin type 2 receptor, human orexin type 2 receptor cDNA was inserted into pcDNA3.1(+) plasmid vector (Invitrogen), and a plasmid DNA for expression of human orexin type 2 receptor (pcDNA3.1(+)/hOX2R) was cloned. The plasmid DNA was introduced into CHO-dhfr cell by an electroporation method, and human orexin type 2 receptor expressing clone cells were obtained by limiting dilution method by using G418 drug resistance as a selection marker.\nExperimental Example 2: Measurement of Orexin Type 2 Receptor Agonist Activity\nCHO cells forcibly expressing human OX2 receptor were seeded in each well of 384 well black transparent bottom plate (BD Falcon) at 7,500 cells/well, and cultured for one day in a 5% CO2 incubator at 37° C. After removal of the medium in the cell plate, assay buffer A containing a calcium indicator (HBSS (Thermo Fisher Scientific), 20 mM HEPES (Thermo Fisher Scientific), 0.1% BSA (Wako Pure Chemical Industries, Ltd. or Sigma-Aldrich), 2.5 μg/mL Fluo-4 AM (DOJINDO Chemical), 0.08% Pluronic F127 (DOJINDO Chemical), 1.25 mM probenecid (DOJINDO Chemical)) was added at 30 μL/well. The plate was stood for 30 min in a 5% CO2 incubator at 37° C., and further stood at room temperature for 30 min. A test compound prepared by diluting with assay buffer B (HBSS, 20 mM HEPES, 0.1% BSA) was added at 10 μL/well, and the fluorescence value was measured by FDSSμCELL (Hamamatsu Photonics K.K.) every one sec for 1 min, and thereafter every two sec for 1 min 40 sec. The activity (%) of the test compound was calculated assuming that variation in the fluorescence value when DMSO was added instead of the test compound was 0%, and variation in the fluorescence value when orexin A (human) (PEPTIDE INSTITUTE, INC.) was added at the final concentration of 10 nM was 100%. The activity of each compound at the concentration of 3 μM was shown below.", "units": {"OX2R agonist activity (3 μM, %)": "%"}, "values": [
      {"smiles": "COC(=O)N[C@H]1CCN(C(=O)C2CCC2)[C@H]1Cc1cccc(-c2cccc(F)c2)c1", "note": "(relative stereo) [Example 1, methyl{cis-1-(cyclobutanecarbonyl)-2-[(3′-fluoro[1,1′-biphenyl]-3-yl)methyl]pyrrolidin-3-yl}carbamate]", "OX2R agonist activity (3 μM, %)": 33},
      {"smiles": "O=C(N[C@H]1CCN(C(=O)C2CCC2)[C@H]1Cc1cccc(-c2cccc(F)c2)c1)C1CCCO1", "note": "(relative stereo) [Example 5, N-{cis-1-(cyclobutanecarbonyl)-2-[(3′-fluoro[1,1′-biphenyl]-3-yl)methyl]pyrrolidin-3-yl}oxolane-2-carboxamide]", "OX2R agonist activity (3 μM, %)": 92},
      {"smiles": "O=C(CO)N[C@H]1CCN(C(=O)C2CCC2)[C@H]1Cc1cccc(-c2cccc(F)c2)c1", "note": "(relative stereo) [Example 6, N-{cis-1-(cyclobutanecarbonyl)-2-[(3′-fluoro[1,1′-biphenyl]-3-yl)methyl]pyrrolidin-3-yl}-2-hydroxyacetamide]", "OX2R agonist activity (3 μM, %)": 60},
      {"smiles": "CC(F)(F)C(=O)N[C@H]1CCN(C(=O)C2CCC2)[C@H]1Cc1cccc(-c2cccc(F)c2)c1", "note": "(relative stereo) [Example 8, N-{cis-1-(cyclobutanecarbonyl)-2-[(3′-fluoro [1,1′-biphenyl]-3-yl)methyl]pyrrolidin-3-yl}-2,2-difluoropropanamide]", "OX2R agonist activity (3 μM, %)": 66},
      {"smiles": "O=C(C1CCC1)N1CC[C@H](NC(=O)C2(F)CCC2)[C@@H]1Cc1cccc(-c2cccc(F)c2)c1", "note": "(relative stereo) [Example 10, N-{cis-1-(cyclobutanecarbonyl)-2-[(3′-fluoro[1,1′-biphenyl]-3-yl)methyl]pyrrolidin-3-yl}-1-fluorocyclobutane-1-carboxamide]", "OX2R agonist activity (3 μM, %)": 79},
      {"smiles": "COC1(C(=O)N[C@H]2CCN(C(=O)C3CCC3)[C@H]2Cc2cccc(-c3cccc(F)c3)c2)CC1", "note": "(relative stereo) [Example 11, N-{cis-1-(cyclobutanecarbonyl)-2-[(3′-fluoro[1,1′-biphenyl]-3-yl)methyl]pyrrolidin-3-yl}-1-methoxycyclopropane-1-carboxamide]", "OX2R agonist activity (3 μM, %)": 93},
      {"smiles": "O=C(NC1CCN(C(=O)C2CCC2)C1Cc1cccc(-c2cccc(F)c2)c1)[C@@H]1CCCO1", "note": "(stereo in doubt) [Example 16, (2S)-N-{cis-1-(cyclobutanecarbonyl)-2-[(3′-fluoro[1,1′-biphenyl]-3-yl)methyl]pyrrolidin-3-yl}oxolane-2-carboxamide]", "OX2R agonist activity (3 μM, %)": 90},
      {"smiles": "CN(C)C(=O)C(=O)NC1CCN(C(=O)C2CCC2)C1Cc1cccc(-c2cccc(F)c2)c1", "note": "(stereo not drawn) [Example 4, N^~2^~-{cis-1-(cyclobutanecarbonyl)-2-[(3′-fluoro[1,1′-biphenyl]-3-yl)methyl]pyrrolidin-3-yl}-N^~1^~,N^~1^~- dimethylethanediamide]", "OX2R agonist activity (3 μM, %)": 95},
      {"smiles": "CN(C)C(=O)C(=O)N[C@H]1CCN(C(=O)N2CCC2)[C@H]1Cc1csc(-c2cccc(F)c2)n1", "note": "[Example 19, N^~2^~-[(2S,3S)-1-(azetidine-1-carbonyl)-2-{[2-(3-fluorophenyl)-1,3-thiazol-4-yl]methyl}pyrrolidin-3-yl]-N^~1,N^~1^~- dimethylethanediamide]", "OX2R agonist activity (3 μM, %)": 89},
      {"smiles": "CN(C)C(=O)C(=O)N[C@H]1CCN(C(=O)C2CCC2)[C@H]1Cc1csc(-c2cccc(F)c2)n1", "note": "[Example 20, N^~2^~-[(2S,3S)-1-(cyclobutanecarbonyl)-2-{[2-(3-fluorophenyl)-1,3-thiazol-4-yl]methyl}pyrrolidin-3-yl]-N^~1,N^~1^~- dimethylethanediamide]", "OX2R agonist activity (3 μM, %)": 82},
      {"smiles": "O=C(N[C@H]1CCN(C(=O)N2CCC2)[C@H]1Cc1cccc(-c2cccc(F)c2)n1)[C@@H]1CCCO1", "note": "[Example 21, (2S)-N-[(2S,3S)-1-(azetidine-1-carbonyl)-2-{[6-(3-fluorophenyl)pyridin-2-yl]methyl]pyrrolidin-3-yl]oxolane-2-carboxamide]", "OX2R agonist activity (3 μM, %)": 59},
      {"smiles": "O=C(N[C@H]1CCN(C(=O)N2CCC2)[C@H]1Cc1csc(-c2cccc(F)c2)n1)[C@@H]1CCCO1", "note": "[Example 23, (2S)-N-[(2S,3S)-1-(azetidine-1-carbonyl)-2-{[2-(3-fluorophenyl)-1,3-thiazol-4-yl]methyl}pyrrolidin-3-yl]oxolane-2-carboxamide]", "OX2R agonist activity (3 μM, %)": 76},
      {"smiles": "O=C(N[C@H]1CCN(C(=O)C2CCC2)[C@H]1Cc1csc(-c2cccc(F)c2)n1)[C@@H]1CCCO1", "note": "[Example 24, (2S)-N-[(2S,3S)-1-(cyclobutanecarbonyl)-2-{[2-(3-fluorophenyl)-1,3-thiazol-4-yl]methyl}pyrrolidin-3-yl]oxolane-2-carboxamide]", "OX2R agonist activity (3 μM, %)": 65},
      {"smiles": "COC1(C(=O)N[C@H]2CCN(C(=O)N3CCC3)[C@H]2Cc2cccc(-c3cccc(F)c3)n2)CC1", "note": "[Example 25, N-[(2S,3S)-1-(azetidine-1-carbonyl)-2-([6-(3-fluorophenyl)pyridin-2-yl]methyl]pyrrolidin-3-yl]-1-methoxycyclopropane-1-carboxamide]", "OX2R agonist activity (3 μM, %)": 54},
      {"smiles": "COC1(C(=O)N[C@H]2CCN(C(=O)N3CCC3)[C@H]2Cc2csc(-c3cccc(F)c3)n2)CC1", "note": "[Example 26, N-[(2S,3S)-1-(azetidine-1-carbonyl)-2-{[2-(3-fluorophenyl)-1,3-thiazol-4-yl]methyl}pyrrolidin-3-yl]-1-methoxycyclopropane-1-carboxamide]", "OX2R agonist activity (3 μM, %)": 67},
      {"smiles": "COC1(C(=O)N[C@H]2CCN(C(=O)C3CCC3)[C@H]2Cc2csc(-c3cccc(F)c3)n2)CC1", "note": "[Example 27, N-[(2S,3S)-1-(cyclobutanecarbonyl)-2-{[2-(3-fluorophenyl)-1,3-thiazol-4-yl]methyl}pyrrolidin-3-yl]-1-methoxycyclopropane-1-carboxamide]", "OX2R agonist activity (3 μM, %)": 60},
      {"smiles": "CN(C)C(=O)C(=O)NC1CCCN(C(=O)C2CCC2)C1Cc1cccc(-c2cccc(F)c2)c1", "note": "(stereo not drawn) [Example 29, N^~2^~-{cis-1-(cyclobutanecarbonyl)-2-[(3′-fluoro[1,1′-biphenyl]-3-yl)methyl]piperidin-3-yl}-N^~1^~,N^~1^~- dimethylethanediamide]", "OX2R agonist activity (3 μM, %)": 80},
      {"smiles": "CN(C)C(=O)C(=O)N[C@H]1CCN(C(=O)N2CCC2)[C@H]1Cc1cccc(-c2cccc(F)c2)c1", "note": "[Example 30, N^~2^~-{(2S,3S)-1-(azetidine-1-carbonyl)-2-[(3′-fluoro[1,1′-biphenyl]-3-yl)methyl]pyrrolidin-3-yl}-N^~1^~,N^~1^~-dimethylethanediamide]", "OX2R agonist activity (3 μM, %)": 101},
      {"smiles": "O=C(N[C@H]1CCN(C(=O)N2CCC2)[C@H]1Cc1cccc(-c2cccc(F)c2)c1)[C@@H]1CCCO1", "note": "[Example 31, (2S)-N-{(2S,3S)-1-(azetidine-1-carbonyl)-2-[(3′-fluoro[1,1′-biphenyl]-3-yl)methyl]pyrrolidin-3-yl}oxolane-2-carboxamide]", "OX2R agonist activity (3 μM, %)": 104},
      {"smiles": "CN(C)C(=O)C(=O)N[C@H]1CCN(C(=O)C2CCC2)[C@H]1Cc1cccc(-c2cccc(F)c2)c1", "note": "[Example 32, N^~2^~-{(2S,3S)-1-(cyclobutanecarbonyl)-2-[(3′-fluoro[1,1′-biphenyl]-3-yl)methyl]pyrrolidin-3-yl}-N^~1^~,N^~1^~- dimethylethanediamide]", "OX2R agonist activity (3 μM, %)": 103},
      {"smiles": "O=C(N[C@H]1CCN(C(=O)C2CCC2)[C@H]1Cc1cccc(-c2cccc(F)c2)c1)[C@@H]1CCCO1", "note": "[Example 33, (2S)-N-{(2S,3S)-1-(cyclobutanecarbonyl)-2-[(3′-fluoro[1,1′-biphenyl]-3-yl)methyl]pyrrolidin-3-yl}oxolane-2-carboxamide]", "OX2R agonist activity (3 μM, %)": 97},
      {"smiles": "CN(C)C(=O)C(=O)N[C@H]1CCN(C(=O)C2(F)CCC2)[C@H]1Cc1cccc(-c2cccc(F)c2)c1", "note": "[Example 35, N^~2^~-[(2S,3S)-2-[(3′-fluoro[1,1′-biphenyl]-3-yl)methyl]-1-(1-fluorocyclobutane-1-carbonyl)pyrrolidin-3-yl]-N^~1^~,N^~1^~- dimethylethanediamide]", "OX2R agonist activity (3 μM, %)": 75}
    ]}
  ]
}
